Counter-ions that a name gives are not always drawn.
Columns and labels:
[1] = solubility of belumosudil mesylate; type: physicochemical
Procedure: The tablet film consists of polyvinyl alcohol, polyethylene glycol, talc, titanium dioxide and yellow iron oxide. Each 200 mg tablet is a pale yellow film-coated oblong tablet debossed with “KDM” on one side and “200” on the other side. Tablets are stored at room temperature, 20° C. to 25° C. (68° F. to 77° F.); excursions permitted from 15° C. and 30° C. (59° F. to 86° F.).

cGVHD = conditions: in vivo; cited from earlier work

Structure (SMILES)	solubility in DMF [1]	solubility in DMSO [1]	solubility in methanol [1]	solubility in water [1]	discontinuation rate because of TEAEs (cGVHD)
CC(C)NC(=O)COc1cccc(-c2nc(Nc3ccc4[nH]ncc4c3)c3ccccc3n2)c1 [Belumosudil mesylate, 2-{3-[4-(1H-indazol-5-ylamino)-2-quinazolinyl]phenoxy}-N-(propan-2-yl) acetamide methanesulfonate (1:1)]	slightly soluble	soluble	slightly soluble	practically insoluble	–
C=CC(=O)N1CCC[C@@H](n2nc(-c3ccc(Oc4ccccc4)cc3)c3c(N)ncnc32)C1 [ibrutinib]	–	–	–	–	43%

Source: US20260027116A1, “Methods of Treating Chronic Graft-Versus-Host Disease Following Allogeneic Hematopoietic Stem Cell Transplantation” (Kadmon Corporation, LLC, priority 2022, published 2026)
